Measurements from patent US10441648B2, “Mycobacterium antigenic composition” (priority 2010, dated 2019).
Read-outs that look alike come from different tables or passages of the source.

Legend:
[1] = system: chicken Red Blood cells (RBC); assay: QS21 lytic activity, haemolysis assay (limit test); format: cell-based
Experimental: QS21 is known to lyse red blood cells (RBC).
QS21 lytic activity was measured by a haemolysis assay using chicken Red Blood cells (RBC). RBC were centrifuged at 550 g at 4° C. Supernatant was discarded. The pellet was carefully resuspended in PBS buffer to reach the initial volume and the same operation was repeated until supernatant was no longer red (generally 3 times). The pellet was stored at 4° C. for 3 to 4 days maximum if not used directly (and washed again the day it is used) or was diluted around 10 times in buffer if used the same day.
A QS21 dose range curve was prepared in ASA buffer (in salt or in sorbitol buffer following the ASA sample tested) extemporaneously and the adjuvant samples (containing a 50 ug or 90 ug equivalent of QS21 meaning the equivalent of 500 ul or 900 ul ASA) were prepared. Final volume was adjusted to 900 ul in standards and samples with adequate buffer (containing or not sorbitol as a function of the buffer of the sample tested). Due to its opalescence, ASA interferes with optical density (OD). ASA “blanks” were thus prepared and their OD was subtracted from the OD of ASA tested samples. Those blanks corresponded to the same ASA volume as the volume tested in samples, but adjusted to 1 ml with buffer. No RBC were added to these blanks. Standards and samples were then incubated with RBC (100 ul of diluted RBC added to 900 ul of standards and samples) for 30 minutes at room temperature (RT). Samples were then centrifuged 5 minutes at 900 g. Optical density at 540 nm was measured after centrifugation.
Determination of lytic activity was carried out by a limit test.
1. Limit of detection (LOD) was defined as the lowest concentration of QS21 leading to an OD: • Higher than the base level (OD>0.1) • Around three times higher than OD's buffer (the “0 ug” QS21) • In the ascendant part of the curve • Determined for each test.
2. QS21 lytic activity was held to be positive in the adjuvant samples if the OD for the adjuvant sample was greater than the ODLOD. […]

[2] = Conductivity determination (Malvern Zetasizer Nano); format: physicochemical
Experimental: A range of standards having sodium chloride concentrations of 0, 75, 100, 150, 250 and 300 mM were prepared from a stock solution of 1500 mM sodium chloride by dilution in water for injection.
Immunogenic compositions were prepared using M72 with two N-terminal His residues according to the procedures provided in Example 8. To investigate the contribution from the antigen itself and any residual materials in the purified bulk, placebo lyophilisation cakes were also prepared by excluding the antigen component.
Using a Malvern Zetasizer Nano and 1.5 ml of each sample in folded capillary cells, a voltage of 30 to 150 V (determined automatically by the instrument) was applied and the conductivity determined.

[3] = DLS and nephelometry of Mtb72f at varied pH and NaCl; format: physicochemical; conditions: pH 6.1, 7.5, 8.5; 0, 150, 450 mM sodium chloride; 24 hours at 4° C. or 25° C.
[4] = DLS antigen size of M72 at varied pH and NaCl (salting out); format: physicochemical
Experimental: Purified bulk antigen (M72 with two N-terminal His residues, SEQ ID No: 3, as prepared in Example 8) was diluted to a concentration of 100 ug/ml in three different buffers (10 mM phosphate buffer at pH 6.1, 20 mM Tris buffer at pH 7.5 and 20 mM Tris buffer at pH 8.5) containing final sodium chloride concentrations of 0, 50, 150, 300 and 450 mM.
Samples were analysed immediately (TO), stored overnight at 4° C. before analysis (T0 O/N) or stored at 25° C. for 24 hours before analysis (T24 h 25° C.).
DLS was performed using a Malvern Zetasizer Nano ZS from Malvern Instruments (UK). The instrument was operated using a laser wavelength of 633 nm and power of 4 mW. Scattered light was detected at 173° at a temperature of 22° C. The Z-average diameter (Zav) and polydispersity index (pi) are calculated by the instrument software.

[5] = pH 6.1, even in the absence of sodium chloride
[6] = pH 7.5 or 8.5, over 24 hours at 25° C., particularly 0 or 50 mM sodium chloride
[7] = pH 7.5 or 8.5, sodium chloride increased to 150 mM or greater

## QS21
[1]; 0.5 ug QS21, 150 mM sodium chloride buffer, optical density at 540 nm, 30 minutes RT with RBC
  OD: 0.052
[1]; 0.6 ug QS21, 150 mM sodium chloride buffer, 540 nm
  OD: 0.073
[1]; 0.7 ug QS21, 150 mM sodium chloride buffer, 540 nm
  OD: 0.091
[1]; 0.8 ug QS21, 150 mM sodium chloride buffer, 540 nm
  OD: 0.096
[1]; 0.9 ug QS21 (limit of detection), 150 mM sodium chloride buffer, 540 nm
  OD: 0.12
[1]; 1 ug QS21, 150 mM sodium chloride buffer, 540 nm
  OD: 0.195
[1]; 1.1 ug QS21, 150 mM sodium chloride buffer, 540 nm
  OD: 0.212
[1]; 1.2 ug QS21, 150 mM sodium chloride buffer, 540 nm
  OD: 0.348
[1]; 1.3 ug QS21, 150 mM sodium chloride buffer, 540 nm
  OD: 0.479
[1]; 1.4 ug QS21, 150 mM sodium chloride buffer, 540 nm
  OD: 0.612
[1]; 1.5 ug QS21, 150 mM sodium chloride buffer, 540 nm
  OD: 0.669
[1]; 2 ug QS21, 150 mM sodium chloride buffer, 540 nm
  OD: 1.139
[1]; 2.5 ug QS21, 150 mM sodium chloride buffer, 540 nm
  OD: 1.294
[1]; 3 ug QS21, 150 mM sodium chloride buffer, 540 nm
  OD: 1.391
[1]; 5 ug QS21, 150 mM sodium chloride buffer, 540 nm
  OD: 1.416

## [Cl-].[Na+] [sodium chloride]
[2]; sodium chloride standard solution 75 mM in water for injection
  Conductivity: 8.2 mS/cm
[2]; sodium chloride standard solution 100 mM
  Conductivity: 10.7 mS/cm
[2]; sodium chloride standard solution 150 mM
  Conductivity: 15.6 mS/cm
[2]; sodium chloride standard solution 250 mM
  Conductivity: 23.9 mS/cm
[2]; sodium chloride standard solution 300 mM
  Conductivity: 30.0 mS/cm

B1: Mtb72f: purified bulk antigen, Mtb72f with 6 his residues, SEQ ID No: 7 (protein)
chain: MHHHHHHTAASDNFQLSQGGQGFAIPIGQAMAIAGQIRSGGGSPTVHIGPTAFLGLGVVDNNGNGARVQRVVGSAPAASLGISTGDVITAVDGAPINSATAMADALNGHHPGDVISVTWQTKSGGTRTGNVTLAEGPPAEFMVDFGALPPEINSARMYAGPGSASLVAAAQMWDSVASDLFSAASAFQSVVWGLTVGSWIGSSAGLMVAAASPYVAWMSVTAGQAELTAAQVRVAAAAYETAYGLTVPPPVIAENRAELMILIATNLLGQNTPAIAVNEAEYGEMWAQDAAAMFGYAAATATATATLLPFEEAPEMTSAGGLLEQAAAVEEASDTAAANQLMNNVPQALQQLAQPTQGTTPSSKLGGLWKTVSPHRSPISNMVSMANNHMSMTNSGVSMTNTLSSMLKGFAPAAAAQAVQTAAQNGVRAMSSLGSSLGSSGLGGGVAANLGRAASVGSLSVPQAWAAANQAVTPAARALPLTSLTSAAERGPGQMLGGLPVGQMGARAGGGLSGVLRVPPRPYVMPHSPAAGDIAPPALSQDRFADFPALPLDPSAMVAQVGPQVVNINTKLGYNNAVGAGTGIVIDPNGVVLTNNHVIAGATDINAFSVGSGQTYGVDVVGYDRTQDVAVLQLRGAGGLPSAAIGGGVAVGEPVVAMGNSGGQGGTPRAVPGRVVALGQTVQASDSLTGAEETLNGLIQFDAAIQPGDSGGPVVNGLGQVVGMNTAAS
modifications: 6 His tag; Mtb72f fusion with 6 additional his residues
[3]
  sensitivity of size (DLS and nephelometry) to salt and pH: sensitive to salt concentration and pH

B2: M72: purified bulk antigen, M72 with two N-terminal His residues, SEQ ID No: 3 (protein)
chain: MHHTAASDNFQLSQGGQGFAIPIGQAMAIAGQIRSGGGSPTVHIGPTAFLGLGVVDNNGNGARVQRVVGSAPAASLGISTGDVITAVDGAPINSATAMADALNGHHPGDVISVTWQTKSGGTRTGNVTLAEGPPAEFMVDFGALPPEINSARMYAGPGSASLVAAAQMWDSVASDLFSAASAFQSVVWGLTVGSWIGSSAGLMVAAASPYVAWMSVTAGQAELTAAQVRVAAAAYETAYGLTVPPPVIAENRAELMILIATNLLGQNTPAIAVNEAEYGEMWAQDAAAMFGYAAATATATATLLPFEEAPEMTSAGGLLEQAAAVEEASDTAAANQLMNNVPQALQQLAQPTQGTTPSSKLGGLWKTVSPHRSPISNMVSMANNHMSMTNSGVSMTNTLSSMLKGFAPAAAAQAVQTAAQNGVRAMSSLGSSLGSSGLGGGVAANLGRAASVGSLSVPQAWAAANQAVTPAARALPLTSLTSAAERGPGQMLGGLPVGQMGARAGGGLSGVLRVPPRPYVMPHSPAAGDIAPPALSQDRFADFPALPLDPSAMVAQVGPQVVNINTKLGYNNAVGAGTGIVIDPNGVVLTNNHVIAGATDINAFSVGSGQTYGVDVVGYDRTQDVAVLQLRGAGGLPSAAIGGGVAVGEPVVAMGNSGGQGGTPRAVPGRVVALGQTVQASDSLTGAEETLNGLIQFDAAIQPGDAGGPVVNGLGQVVGMNTAAS
modifications: M72 fusion with 2 additional his residues
[4]; pH 6.1, 0 mM sodium chloride, T0
  antigen size (DLS): 35 nm
[4]; pH 6.1, 50 mM sodium chloride, T0
  antigen size (DLS): 58 nm
[4]; pH 6.1, 50 mM sodium chloride, after 24 hours at 25° C.
  antigen size (DLS): 79 nm
[4]; [5]
  stability of antigen size: not stable
[4]; [6]
  stability of antigen size: relatively stable
[4]; [7]
  change in antigen size: clear increase
[5]
  stability of antigenicity: not stable
[6]
  stability of antigenicity: relatively stable
[7]
  change in antigenicity: reduction
